# Laboratory results from patent US20050209157A1, “Short bioactive peptides and methods for their use” (priority 2001, published 2005).
# No end group written: not given here.
# Assays:
# [1] = test system: Pseudomonas aeruginosa H187; assay type: cell-based; settings: Table 11; in µg/mL
# [2] = test system: Candida glabrata ATCC15126; test: Antimicrobial assays II, NCCLS broth microdilution MIC; assay type: cell-based; settings: Table 10; in µg/mL
# S. aureus (MRSA) = assay type: cell-based, Staphylococcus aureus; settings: Table 11, strain SAP0017; in µg/mL
# E. coli UB1005 = assay type: cell-based, Escherichia coli; settings: Table 11
# [3] = test system: Candida tropicalis ATCC13803; test: Antimicrobial assays II, NCCLS broth microdilution MIC; assay type: cell-based; settings: Table 10
# Description: Anti-microbial activity against a broader range of pathogens (including clinical strains) than were tested in Example 2. It should be noted that somewhat different protocols were employed for the assays in Example 2 and Example 3.
# MICs were determined for this Example using a slightly modified version of the NCCLS (National Committee for Clinical Laboratory Standards) broth microdilution method as described previously (Steinberg et al., AAC 41: 1738, 1997). Briefly, antimicrobial agents were prepared as 10× concentrates in the most appropriate solvent. For the peptide, 0.01% acetic acid containing 0.2% bovine serum albumin as a carrier protein was used. Inocula were prepared by resuspending colonies from a BAP in medium and adjusting the suspension to match that of a 0.5 McFarland standard. The suspension was diluted into fresh medium (as recommended by NCCLS for the organism) to give 2×10^5 to 7×10^5 CFU/ml for bacteria or 2×10^3 to 7×10^3 CFU/ml for Candida. After dispensing 100 μl aliquots of the microbial suspension into each well of a 96-well polypropylene microtiter plate, 11 μl of test compound was added. […] For facultative anaerobes incubation was performed in 7% carbon dioxide and for strict anaerobes in an oxygen free environment maintained using a standard anaerobic “jar”. All MICs were performed three times and the mean value determined.
# Candida albicans 105 = assay type: cell-based; settings: Table 10; in µg/mL
# S. typhimurium 14028S = assay type: cell-based, Salmonella typhimurium; settings: Table 11
# Escherichia coli 25922 = test: microbe, parasite or virus in culture; settings: for MBC, With peptide: with 5 μg/mL peptide Shiva-10
# Text: Synergy between peptide Shiva-10 (SEQ ID NO:4) and various antimicrobial agents was investigated against Escherichia coli 25922.
# Synergy between tetracycline and various peptides was investigated against Escherichia coli 25922 MBC. […] When combined with the peptides, the concentration of tetracycline was held at 1.5 ppm.
# Staph. aureus 29213 = test: microbe, parasite or virus in culture
# Text: This experiment determined the peptide MBC in the absence of the antimicrobial agent, or in the presence of the indicated concentration of antimicrobial agent
Compound,MIC P. aeruginosa H187 [1],MIC C. glabrata ATCC15126 [2],MIC S. aureus SAP0017 (S. aureus (MRSA)),MIC E. coli UB1005 (E. coli UB1005),MIC C. tropicalis ATCC13803 [3],MIC C. albicans 105 (Candida albicans 105),MIC S. typhimurium 14028S (S. typhimurium 14028S),"MBC, Without tetracycline (Escherichia coli 25922; peptide alone)","MBC, With tetracycline (Escherichia coli 25922; tetracycline held at […])","MBC (Escherichia coli 25922; Escherichia coli, 25922, read-out: MBC, Without peptide)","MBC, With peptide (Escherichia coli 25922)","MBC, Without peptide (Escherichia coli 25922; agent alone)","MBC (Staph. aureus 29213; Staphylococcus aureus, 29213, read-out: MBC, Without peptide)","MBC, With 5 μg/mL peptide (Staph. aureus 29213; with 5 μg/mL peptide Shiva-10)"
FAKKLAKLAKKL-NH2 [P106 (70)],>128,64,>128,64 µg/mL,2 µg/mL,32,> 128 µg/mL,,,,,,,
FAKKLKKLAKKL-NH2 [P79 (54)],>128,128,>128,32 µg/mL,2 µg/mL,32,> 128 µg/mL,,,,,,,
FALALKALKKLKKALKKAL-NH2 [FLAK 06AM (P27; SEQ ID NO: 12)],,,,,,,,75 µg/mL,25 µg/mL,,,,,
NCC[C@H](O)C(=O)N[C@@H]1C[C@H](N)[C@@H](O[C@H]2O[C@H](CN)[C@@H](O)[C@H](O)[C@H]2O)[C@H](O)[C@H]1O[C@H]1O[C@H](CO)[C@@H](O)[C@H](N)[C@H]1O [Amikacin],,,,,,,,,,150 µg/mL,50 µg/mL,,,
NC[C@@H]1O[C@H](O[C@H]2[C@@H](O)[C@H](O[C@@H]3[C@@H](O)[C@H](N)C[C@H](N)[C@H]3O[C@H]3O[C@H](CN)[C@@H](O)[C@H](O)[C@H]3N)O[C@@H]2CO)[C@H](N)[C@@H](O)[C@@H]1O [Neomycin],,,,,,,,,,,5 µg/mL,100 µg/mL,,
FKLAFKLAKKAFL-NH2 [P122 (84)],32-128,64,128,64 µg/mL,4 µg/mL,32,128 µg/mL,,,,,,,
FAKKLAKKAKLAKKL-NH2 [P77 (53)],64-128,64,>128,64 µg/mL,1 µg/mL,16,> 128 µg/mL,,,,,,,
FAKKLAKKLAKAL-NH2 [P74 (50)],32-128,16,>128,16 µg/mL,1 µg/mL,16,64 µg/mL,,,,,,,
CC1(C)S[C@@H]2[C@H](NC(=O)[C@H](N)c3ccccc3)C(=O)N2[C@H]1C(=O)O [Ampicillin],,,,,,,,,,,,,5 µg/mL,2.5 µg/mL
FAKKALKALKKL-NH2 [P47 (29)],64-128,64,>128,64 µg/mL,1 µg/mL,32,> 128 µg/mL,,,,,,,
